Data reported in PubChem BioAssay (NCI).
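At the GI50, growth is halved. At the TGI there is no net growth.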

Tests used:
Experiment in all cases: NCI anticancer screen, dose series, 384-well format
M14 melanoma = tested on: M14 melanoma
MALME-3M melanoma = tested on: MALME-3M melanoma
CCRF-CEM leukemia = tested on: CCRF-CEM leukemia
NCI-H522 lung = tested on: NCI-H522 lung
MDA-MB-435 melanoma = tested on: MDA-MB-435 melanoma
MCF7 breast = tested on: MCF7 breast
MOLT-4 leukemia = tested on: MOLT-4 leukemia
HCC-2998 colon = tested on: HCC-2998 colon
A498 renal = tested on: A498 renal
HCT-116 colon = tested on: HCT-116 colon
HS 578T breast = tested on: HS 578T breast
DU-145 prostate = tested on: DU-145 prostate
UACC-62 melanoma = tested on: UACC-62 melanoma
SW-620 colon = tested on: SW-620 colon
SN12C renal = tested on: SN12C renal
SF-539 CNS = tested on: SF-539 CNS
OVCAR-3 ovarian = tested on: OVCAR-3 ovarian
RXF 393 renal = tested on: RXF 393 renal
SF-295 CNS = tested on: SF-295 CNS
786-0 renal = tested on: 786-0 renal
EKVX NSCLC = tested on: EKVX NSCLC
K-562 leukemia = tested on: K-562 leukemia
UO-31 renal = tested on: UO-31 renal
NCI-H460 NSCLC = tested on: NCI-H460 NSCLC
MDA-MB-468 breast = tested on: MDA-MB-468 breast
OVCAR-8 ovarian = tested on: OVCAR-8 ovarian
A549 NSCLC = tested on: A549 NSCLC
BT-549 breast = tested on: BT-549 breast
NCI-H23 lung = tested on: NCI-H23 lung
RPMI-8226 leukemia = tested on: RPMI-8226 leukemia
U251 glioblastoma = tested on: U251 glioblastoma
SF-268 CNS = tested on: SF-268 CNS
CAKI-1 renal = tested on: CAKI-1 renal
HL-60(TB) leukemia = tested on: HL-60(TB) leukemia
COLO 205 colon = tested on: COLO 205 colon
SK-MEL-5 melanoma = tested on: SK-MEL-5 melanoma
ACHN renal = tested on: ACHN renal
SNB-75 CNS = tested on: SNB-75 CNS
HCT-15 colon = tested on: HCT-15 colon
NCI-H226 lung = tested on: NCI-H226 lung
SNB-19 CNS = tested on: SNB-19 CNS
MDA-MB-231 breast = tested on: MDA-MB-231 breast
HT29 colon = tested on: HT29 colon
HOP-62 NSCLC = tested on: HOP-62 NSCLC
UACC-257 melanoma = tested on: UACC-257 melanoma
SK-MEL-28 melanoma = tested on: SK-MEL-28 melanoma
SK-OV-3 ovarian = tested on: SK-OV-3 ovarian
TK-10 renal = tested on: TK-10 renal
IGROV1 ovarian = tested on: IGROV1 ovarian
OVCAR-5 ovarian = tested on: OVCAR-5 ovarian
PC-3 prostate = tested on: PC-3 prostate
NCI/ADR-RES ovarian = tested on: NCI/ADR-RES ovarian
NCI-H322M lung = tested on: NCI-H322M lung
HOP-92 NSCLC = tested on: HOP-92 NSCLC
T-47D breast = tested on: T-47D breast
KM12 colon = tested on: KM12 colon
SK-MEL-2 melanoma = tested on: SK-MEL-2 melanoma
LOX IMVI melanoma = tested on: LOX IMVI melanoma
OVCAR-4 ovarian = tested on: OVCAR-4 ovarian

Question: What does the source list for Cc1cc(C(=O)Nc2nc3cccc(Cl)c3n2[C@@H]2CCCCN(C(=O)/C=C/CN(C)C)C2)ccn1?
Answer: GI50 (M14 melanoma): 2.75 µM; TGI (M14 melanoma): 11.5 µM; GI50 (MALME-3M melanoma): 2.76 µM; TGI (MALME-3M melanoma): 10.8 µM; GI50 (CCRF-CEM leukemia): 1.56 µM; TGI (CCRF-CEM leukemia): 2.98 µM; GI50 (NCI-H522 lung): 0.12 µM; TGI (NCI-H522 lung): 2.07 µM; GI50 (MDA-MB-435 melanoma): 3.35 µM; TGI (MDA-MB-435 melanoma): 12.3 µM; GI50 (MCF7 breast): 2.51 µM; TGI (MCF7 breast): 11.3 µM; GI50 (MOLT-4 leukemia): 1.4 µM; TGI (MOLT-4 leukemia): 2.72 µM; GI50 (HCC-2998 colon): 2.44 µM; TGI (HCC-2998 colon): 6.43 µM; GI50 (A498 renal): 1.45 µM; TGI (A498 renal): 10.8 µM; GI50 (HCT-116 colon): 3.17 µM; TGI (HCT-116 colon): 10.9 µM; GI50 (HS 578T breast): 1.62 µM; TGI (HS 578T breast): 6.37 µM; GI50 (DU-145 prostate): 2.34 µM; TGI (DU-145 prostate): 13.6 µM; GI50 (UACC-62 melanoma): 3.62 µM; TGI (UACC-62 melanoma): 14.1 µM; GI50 (SW-620 colon): 2.93 µM; TGI (SW-620 colon): 8.65 µM; GI50 (SN12C renal): 1.79 µM; TGI (SN12C renal): 13.9 µM; GI50 (SF-539 CNS): 3.23 µM; TGI (SF-539 CNS): 11 µM; GI50 (OVCAR-3 ovarian): 1.46 µM; TGI (OVCAR-3 ovarian): 4.15 µM; GI50 (RXF 393 renal): 4.04 µM; TGI (RXF 393 renal): 15.3 µM; GI50 (SF-295 CNS): 4.09 µM; TGI (SF-295 CNS): 14.5 µM; GI50 ([…]-0 renal): 2.98 µM; TGI (786-0 renal): 13.1 µM; GI50 (EKVX NSCLC): 0.648 µM; TGI (EKVX NSCLC): 3.73 µM; GI50 (K-562 leukemia): 3.03 µM; TGI (K-562 leukemia): 12.4 µM; GI50 (UO-31 renal): 2.05 µM; TGI (UO-31 renal): 12.9 µM; GI50 (NCI-H460 NSCLC): 2.99 µM; TGI (NCI-H460 NSCLC): 10.6 µM; GI50 (MDA-MB-468 breast): 0.111 µM; TGI (MDA-MB-468 breast): 0.507 µM; GI50 (OVCAR-8 ovarian): 3.15 µM; TGI (OVCAR-8 ovarian): 13.7 µM; GI50 (A549 NSCLC): 2.49 µM; TGI (A549 NSCLC): 13.6 µM; GI50 (BT-549 breast): 2.66 µM; TGI (BT-549 breast): 9.69 µM; GI50 (NCI-H23 lung): 2.83 µM; TGI (NCI-H23 lung): 10.5 µM; GI50 (RPMI-8226 leukemia): 1.4 µM; TGI (RPMI-8226 leukemia): 3.77 µM; GI50 (U251 glioblastoma): 2.61 µM; TGI (U251 glioblastoma): 8.17 µM; GI50 (SF-268 CNS): 3.02 µM; TGI (SF-268 CNS): 14 µM; GI50 (CAKI-1 renal): 1.44 µM; TGI (CAKI-1 renal): 14.8 µM; GI50 (HL-60(TB) leukemia): 1.49 µM; TGI (HL-60(TB) leukemia): 2.82 µM; GI50 (COLO 205 colon): 4.23 µM; TGI (COLO 205 colon): 15.6 µM; GI50 (SK-MEL-5 melanoma): 1.71 µM; TGI (SK-MEL-5 melanoma): 4.83 µM; GI50 (ACHN renal): 1.48 µM; TGI (ACHN renal): 12.5 µM; GI50 (SNB-75 CNS): 5.5 µM; TGI (SNB-75 CNS): 17.9 µM; GI50 (HCT-15 colon): 2.73 µM; TGI (HCT-15 colon): 10.7 µM; GI50 (NCI-H226 lung): 3.39 µM; TGI (NCI-H226 lung): 15.9 µM; GI50 (SNB-19 CNS): 3.49 µM; TGI (SNB-19 CNS): 14.9 µM; GI50 (MDA-MB-231 breast): 4.34 µM; TGI (MDA-MB-231 breast): 17 µM; GI50 (HT29 colon): 4.41 µM; TGI (HT29 colon): 16.1 µM; GI50 (HOP-62 NSCLC): 1.93 µM; TGI (HOP-62 NSCLC): 5.59 µM; GI50 (UACC-257 melanoma): 2.56 µM; TGI (UACC-257 melanoma): 8.75 µM; GI50 (SK-MEL-28 melanoma): 7.02 µM; TGI (SK-MEL-28 melanoma): 20.1 µM; GI50 (SK-OV-3 ovarian): 0.928 µM; TGI (SK-OV-3 ovarian): 10.2 µM; GI50 (TK-10 renal): 0.494 µM; TGI (TK-10 renal): 7.41 µM; GI50 (IGROV1 ovarian): 0.697 µM; TGI (IGROV1 ovarian): 2.79 µM; GI50 (OVCAR-5 ovarian): 3.08 µM; TGI (OVCAR-5 ovarian): 14.2 µM; GI50 (PC-3 prostate): 3.45 µM; TGI (PC-3 prostate): 14.3 µM; GI50 (NCI/ADR-RES ovarian): 2.3 µM; TGI (NCI/ADR-RES ovarian): 9.63 µM; GI50 (NCI-H322M lung): 0.367 µM; TGI (NCI-H322M lung): 10.1 µM; GI50 (HOP-92 NSCLC): 2.93 µM; TGI (HOP-92 NSCLC): 13.9 µM; GI50 (T-47D breast): 2.65 µM; TGI (T-47D breast): 17.3 µM; GI50 (KM12 colon): 3.36 µM; TGI (KM12 colon): 12.5 µM; GI50 (SK-MEL-2 melanoma): 2.43 µM; TGI (SK-MEL-2 melanoma): 7.52 µM; GI50 (LOX IMVI melanoma): 2.24 µM; TGI (LOX IMVI melanoma): 5.51 µM; GI50 (OVCAR-4 ovarian): 3.56 µM; TGI (OVCAR-4 ovarian): 14.7 µM
